Assay results from US20100130549A1, “PSYCHOTROPIC COMPOUNDS, COMPOSITIONS AND METHODS OF USE” (priority 2007, published 2010).

Key:
Adrenergic α1D = target: T1, Adrenergic α1D (Homo sapiens, UniProt P25100); test: Radioligand binding assay, Adrenergic α1D
T1 sequence (P25100 1-572): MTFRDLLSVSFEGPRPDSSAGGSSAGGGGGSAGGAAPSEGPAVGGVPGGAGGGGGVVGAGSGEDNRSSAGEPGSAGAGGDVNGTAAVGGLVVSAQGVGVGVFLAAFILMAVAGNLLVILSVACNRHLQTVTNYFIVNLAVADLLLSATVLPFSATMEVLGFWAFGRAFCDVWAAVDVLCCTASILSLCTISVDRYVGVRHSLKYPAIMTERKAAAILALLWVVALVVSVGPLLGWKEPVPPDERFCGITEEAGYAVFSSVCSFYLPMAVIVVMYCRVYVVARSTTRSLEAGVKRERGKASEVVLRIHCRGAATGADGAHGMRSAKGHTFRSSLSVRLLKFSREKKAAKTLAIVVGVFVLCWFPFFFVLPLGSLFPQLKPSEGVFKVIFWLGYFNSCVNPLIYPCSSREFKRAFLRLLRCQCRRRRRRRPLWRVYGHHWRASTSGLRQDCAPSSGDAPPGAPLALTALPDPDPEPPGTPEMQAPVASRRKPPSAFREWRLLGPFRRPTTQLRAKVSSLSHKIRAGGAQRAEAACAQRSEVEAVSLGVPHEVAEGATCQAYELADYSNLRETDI
Excerpt: . Table 1 provides data produced via a receptor binding assay and IC50 and Ki determination. […] In addition, the compound of formula (Ia) has a potent DAT inhibition, which is indicative of dopaminergic uptake inhibition and increased DA activity. In addition to the effect on SERT and DAT, the compound of formula (Ia) inhibited the transporter of Norepinephrine (NET), and several neurotransmitter's receptors like alpha2A and alpha2C receptors, alpha 1A and alphal C, 5HT2A and 5HT2C, signal histamine2 and dopamine D1. This specific profile is in line with the data on antidepressant, anxiolytic and moderate neuro-stimulation activity observed in the animal model studies.
With regard to the data provided in Table 1, the biochemical assay results are presented as the percent inhibition of specific binding or activity throughout the report. For primary assays, only the lowest concentration with a significant response judged by the assays’ criteria, is shown in this summary. […] Unless otherwise requested, primary screening in duplicate with quantitative data (e.g., IC50±SEM, Ki±SEM and nH) are shown.

BALB/c mice = test: Open field test
SHSY5Y cell-line = test: Cell viability, neutral red method
[1] = 10 mg/kg (equimolar) ip 1 hr prior
[2] = 10 mg/kg (equimolar) ip 1 hr prior, p<0.001 vs controls

## CN[C@H]1CC[C@@H](c2ccc(Cl)c(Cl)c2)c2ccc(C#CCCCO)cc21 [compound Ia, (1S-cis)-4-(3,4-dichlorophenyl)-7-(5-hydroxy-1-pentyn-1-yl)-1,2,3,4-tetrahydro-N-methyl-1-naphthalenamine hydroiodide]
Adrenergic α1D
  IC50: 2500 nM
  nH: 1.04
Adrenergic α1D; 3 μM
  inhibition at 3 µM: 54%
Adrenergic α1D; read-out: K1
  Ki: 1230 nM
BALB/c mice; [1]
  ratio (center/periphery): significantly increase
  total time spent in the center (areas 2+3): significantly increase
BALB/c mice; 10 mg/kg (equimolar) ip 1 hr prior, controls 1.23
  frequency to the center: 1.35
BALB/c mice; [2]
  distance moved: significantly increase
  velocity: significantly increase
BALB/c mice; orally 90 min prior
  sedative effect accompanying the anxiolytic activity: not accompanied by a sedative effect
SHSY5Y cell-line; 1-5 μM, 24 and 48 hours incubation
  increase in cell viability compared to control vehicle treated cells: 13-25%
SHSY5Y cell-line; 1-50 μM, low concentrations neurotrophic, high concentrations apoptosis
  effect on cell viability over concentration range: biphasic effects
SHSY5Y cell-line; concentration range 1-50 μM
  concentration of maximal neurotropic activity: 1 µM
